Reference: publication PMC8534003, “The Chemokine-Based Peptide, CXCL9(74-103), Inhibits Angiogenesis by Blocking Heparan Sulfate Proteoglycan-Mediated Signaling of Multiple Endothelial Growth Factors” (Cancers, 2021)
Where no end group is shown, it is not given here.

Legend:
[1] = tested on: HMVECs; experiment: In vitro toxicity assay (LIVE/DEAD viability/cytotoxicity); format: cell-based, human; settings: 0.3 or 3 µM, 24 h, calcein-AM/EthD-1, n = 4
Procedure: HMVECs were seeded in MCDB131 medium supplemented with 3% (v/v) FCS at 8 × 10^3 cells/well in a black, clear bottom 96-well plate coated with 0.1% (v/v) gelatin in PBS. The next day, cells were washed and incubated with control medium (vide supra) alone or in the presence of 0.3 or 3 µM of CXCL9(74-103) or CXCL9(86-103) for 24 h. The negative control cells were treated with 2% (v/v) Triton™ X-100 to induce cell death […] after the start of the experiment, i.e., 1 h prior to the addition of the LIVE/DEAD stain. The toxicity of the peptides was assessed using the LIVE/DEAD viability/cytotoxicity kit (Invitrogen, Carlsbad, CA, USA), according to the manufacturer’s instructions. At 24 h, calcein-acetoxymethyl ester (AM) and ethidium homodimer-1 (EthD-1) in 0.4% (v/v) FCS in DMEM FluoroBrite (Gibco) were added to all wells and the fluorescence was measured in the IncuCyte S3 live cell imaging system (Essen BioScience, Ltd.; Newark, UK).

[2] = molecular target: T1, FGF-2 (Homo sapiens, UniProt P09038); experiment: Grating-coupled interferometry (GCI); format: binding; settings: FGF-2 over immobilized biotinylated CXCL9(74-103), 25 °C, pH 7.4; mean ± SEM, n = 3
T1 construct: purchased R&D Systems
Procedure: GCI experiments were performed on a Creoptix WAVEdelta system (Creoptix AG, Wädenswil, Switzerland), which is a label-free surface biosensor system for the characterization of molecular interactions. 4PCP-STA chips (Creoptix AG) were used, which contain a quasi-planar polycarboxyl-matrix with pre-immobilized streptavidin. The running buffer for the experiments was PBS supplemented with 30 mM NaCl, 15 mM L-Arginine, 0.015% (v/v) Tween® 20 and 0.05 mg/mL BSA at pH 7.4 for reducing nonspecific binding. Chips were conditioned using borate buffer (100 mM sodium borate, 1 M NaCl, pH 9.0). Capture was performed by injecting biotinylated CXCL9(74-103) at a concentration of 2 µg/mL and a flow rate of 10 µL/minute over the chip surface, until a density of +/− 160 was reached. After capture of biotinylated CXCL9(74-103), binding with FGF-2 was studied by injecting an FGF-2 concentration series over the chip surface. […] A reference channel was blocked in the same way. Injections of the FGF-2 analyte were performed at 25 °C, with an association and dissociation time of 120 seconds and a flow rate of 40 µL/min. Absence of mass-transport limitation was verified by repeating the experiment at 50 µL/minute. A 1:3 dilution series with six dilutions (4.53 nM, 13.6 nM, 40.7 nM, 122 nM, 367 nM, 1.10 µM; all in duplicate) was analyzed. […]

[3] = tested on: FGF-2; settings: cited from earlier work
Excerpt: Earlier studies that report on targeting HS-mediated interactions most commonly rely on HS mimetics that either mask HS for GF binding or directly interact with the GF, preventing it from binding to HS [39]. […] Pagano et al. reported that the small molecule inhibitor SM27, derived from the FGF-2-binding region of thrombospondin-1 (TSP-1), selectively bound the heparin-binding site of FGF-2 ...

[4] = tested on: EGFR and α3β1 integrin / syndecan-4; settings: cited from earlier work
Excerpt: Syndecan-4, the most abundant mammalian syndecan, has been described to function as an independent receptor for several heparin-binding growth factors such as FGFs, VEGFs and PDGFs. Upon ligand binding, the HSPGs oligomerize and initiate signaling components such as mammalian target of rapamycin (mTOR), RAC-α serine/threonine-protein kinase (AKT1) and the Rho family of GTPases, which are r ...

T1 sequence (P09038 143-288): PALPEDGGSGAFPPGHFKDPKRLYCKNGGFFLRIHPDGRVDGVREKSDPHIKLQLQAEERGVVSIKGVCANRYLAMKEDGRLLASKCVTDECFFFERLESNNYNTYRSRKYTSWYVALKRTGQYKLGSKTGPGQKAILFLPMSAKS

KKKQKNGKKHQKKKVLKVRKSQRSRQKKTT [CXCL9(74-103)]
cell viability / toxicity [1]: without inducing any cell toxicity | koff [2]: 0.00207 s⁻¹ | kon [2]: 20000 M⁻¹ s⁻¹

TSP-2: another TSP (thrombospondin) with anti-angiogenic activity
interaction with FGF-2 [3]: able to interact with FGF-2 and interfered with HS and FGFR1 binding

synstatin (SSTNEGFR): a peptide based on the EGFR interaction motifs
displacement from syndecan and cell migration [4]: displaces the RTK and α3β1 integrin from the syndecan and prevents cell migration
